The target in data set [1] is T1, GPR10 (Homo sapiens, UniProt P49683).
T1 sequence (P49683 1-370): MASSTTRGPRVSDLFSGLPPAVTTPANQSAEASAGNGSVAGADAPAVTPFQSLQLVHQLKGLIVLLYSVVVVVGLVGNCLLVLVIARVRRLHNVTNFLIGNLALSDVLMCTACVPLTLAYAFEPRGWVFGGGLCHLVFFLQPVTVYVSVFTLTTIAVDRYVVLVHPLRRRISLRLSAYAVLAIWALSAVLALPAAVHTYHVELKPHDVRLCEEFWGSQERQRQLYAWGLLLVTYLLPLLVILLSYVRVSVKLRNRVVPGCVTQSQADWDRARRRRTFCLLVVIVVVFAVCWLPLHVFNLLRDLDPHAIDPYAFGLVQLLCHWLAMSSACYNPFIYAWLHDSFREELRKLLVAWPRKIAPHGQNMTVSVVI
The conditions noted are these: read-out: apparent affinity for GPR10; cited from earlier work.

Data set [2] relates to rat anterior pituitary cells. Conditions: rat anterior pituitary cells in vitro; cited from earlier work.
Data set [3] deals with GAERS (Genetic Absence Epilepsy Rats from Strasbourg). As to the kind of experiment: absence seizure activity (spike and wave discharges, EEG) in GAERS after ICV injection. In kind it is in vivo, rat. Here is the method: Electroencephalogram (EEG) recordings and intracerebroventricular (ICV) injection into GAERS were performed essentially as described in Liu et al., Brain Res. 545:1-7 (1991). Briefly, six male GAERS (300-400 g) were implanted stereotaxically (AP=−0.8, ML=1.2, CV=3 mm, with bregma as reference) with a permanent stainless steel cannula under pentobarbital anesthesia (40 mg/kg i.p.). All rats were also implanted bilaterally with 4 stainless-steel electrodes at the frontal and parietal cortex and connected to a microconnector. Both the guide cannulae and EEG electrodes were anchored to the skull using retaining screws and dental acrylic cement.
After one week of recovery, stainless steel injection cannulae were introduced into the guide cannulae so as to extend 2-4 mm beyond their tips. Injection cannulae were connected to a 10 μl microsyringe driven by a pump. Five microliters saline or peptides at various concentrations were microinjected over 1 min through the cannulae while taking EEG recordings continuously throughout the duration of the experiment, in freely moving animals. During EEG recordings the rats were carefully watched and were prevented from falling asleep by gentle sensory stimulation. Seizure frequency was determined as a cumulative duration of spike and wave discharges per consecutive 20 minute periods (seconds of seizure activity per 20 minute recording) after the initial injection. Statistical analysis was performed using the Wilcoxon test.
PrRP was administered intracerebroventricularly into GAERS rats. EEG was taken throughout the course of the experiment and time spent in seizures (spike and wave discharges (SWD) duration) was tabulated for 20 minute intervals from the initial infusion of either aCSF control or various peptide concentrations. Data from six animals receiving the same treatment were pooled. In comparison to aCSF control, PrRP was able to dose-dependently suppress seizure activity in this animal model (FIGS. 5A-5D). […] This seizure suppressing activity remained significant 60 to 80 minutes after peptide injection.
The chart calibration was 200 microV/1 sec.

The test system of data set [4] is AMPA receptor-mediated thalamic oscillatory activity. The experiment in a line: AMPA receptor-driven oscillatory activity, extracellular recording from RTN in thalamic slices. More on the design: species or system Sprague-Dawley rats. As for the experimental part: (§1) Horizontal thalamic slices (400 μm) were prepared from Sprague-Dawley rats (postnatal rats 13-15) using a vibratome (Leica, VTlOOOS). The slices were transferred to a recording chamber after at least 1 hr recovery, and were superfused with artificial cerebrospinal fluid (aCSF) equilibrated with 95% 02/5% CO2 at 0.5 ml/mm. The aCSF contained (in mM): NaCl 126, KCl2.5, NaH2PO4 1.25, CaCl2 2, MgSO4 0.63, NaHCO3 26, and glucose 10. All experiments were carried out in the presence of 10 μM bicuculline maleate and cytochrome c (100 μg/ml) at 34° C. A glass electrode filled with 2 M NaCl was positioned in the nucleus of reticular thalamus (RTN), and extracellular recording was made in response to stimulation of the internal capsule (1-50 μA) every 20-30 sec. After establishing stable oscillatory activity, PrRP was applied for 15-20 min. Paired Student's t-Test was used for statistical analysis. The data were digitized at 1-5 kHz with the Neuronal Activity Acquisition Program (Eclectek Enterprise).
The bar on the left indicates the duration of peptide application. The traces at the bottom show representative responses before and in the presence of PrRP, taken at the time points indicated with arrow heads. […]

Data set [5] has as its target T1, GPR10. The conditions noted are these: cells transfected with GPR10; cited from earlier work.
The subject of data set [6] is sleeping Sprague-Dawley rats. The experiment in a line: EEG/EMG sleep/wake recording in sleeping rats after i.c.v. infusion. In kind it is in vivo, rat. As for the experimental part:
To determine if PrRP modulates sleep/wake or arousal states, varying doses of PrRP were injected i.c.v. into sleeping rats. EEG and EMG were recorded for 150 min in three groups, each consisting of 6 rats, that received either vehicle, 1 nmol PrRP, or 10 nmol PrRP. Analyses were conducted across five consecutive 30-min epochs; vehicle or PrRP were injected at the end of the second epoch. Vehicle-treated rats spent a substantial portion of the entire testing period asleep with characteristic EEG/EMG recordings. EEG and EMG recordings were made from Male Sprague-Dawley rats (300-400 g, Sasco, Oregon, Wis.) according to the method described previously (Berridge et al., J. Neurosci., 16:6999-7009 (1996)).
Rats were housed in pairs for at least 7-days prior to surgery with ad lib access to food and water on an 11:13 hour light:dark cycle (lights on 7:00 a.m.). Approximately 5 μl of vehicle or PrRP31 dissolved in vehicle ([…]) was infused intracerebroventricularly through a pre-implanted cannula (Berridge et al., supra (1996)). Artificial extracellular fluid (147 mM NaCl, 1.3 mM CaCl2, 0.9 mM MgCl2, 2.5 mM KCl, 5.0 mM NaH2PO4; pH 7.4) plus 200 μg/ml cytochrome c served as vehicle. Infusions were made over a 2-min period using a microprocessor-controlled infusion pump (Harvard Apparatus, South Natick, Mass.). Cortical EEG (ECoG) from the frontal cortex and EMG from the dorsal neck muscles were recorded for 60 min prior to infusion and 90 min following infusion. To be scored as a distinct epoch, the appropriate ECoG and EMG activity patterns needed to persist for a minimum of 15 sec. Time spent in each state was scored and totaled for the five 30 min epochs of the observation period, two during the preinfusion period and three during the post-infusion period. The location of the infusion needle was verified morphologically after each experiment. Data were only used for analysis when EEG recordings were electrically adequate and infusion needle placement was accurate. Statistical analysis was performed using a two-way mixed-design ANOVA with drug treatment as the between-subjects variable and time as the within-subjects variable. Post-hoc analyses were conducted using Tukey's HSD test.
FIGS. 7B and 7C show the effects of varying concentrations of PrRP infused into the lateral ventricle on total time spent awake (FIG. 7B) and slow-wave slept (FIG. 7C). Symbols represent mean±SEM of the time (sec) spent in the two different behavioral state categories of six animals per 30-min epoch. PRE1 and PRE2 represent pre-infusion epochs. POST1-POST3 represent post-infusion epochs. Vehicle-treated rats spent a substantial proportion of the testing period asleep.

In a further data set the target is T2, PrRP receptor (Homo sapiens, UniProt P49683).
T2 construct: expressed in transfected cells
T2 sequence (P49683 1-370): T1 sequence (P49683 1-370)
The conditions noted are these: mammalian cells recombinantly expressing PrRP receptor; cited from earlier work.

The subject of data set [7] is NMDA receptor-mediated thalamic oscillatory activity. As to the kind of experiment: NMDA receptor-driven oscillatory activity in thalamic slices (low Mg2+ aCSF with CNQX). More on the design: species or system Sprague-Dawley rats. Conditions: 10 μM; low Mg2+ (0.1 mM) aCSF with 10 μM CNQX; n=4. Here is the method:
as §1
It was next investigated whether the suppression of RTN oscillatory activity by PrRP is the consequence of AMPA receptor modulation or some general cellular effect. […] The above experiment was thus repeated in a low Mg^2+ (0.1 mM)-aCSF containing 10 μM of the AMPA receptor antagonist CNQX.

Regarding “SRAHQHSMEIRTPDINPAWYAGRGIRPVGRF [PrRP-31]”, the Kd at GPR10 [1] was approximately 1 nM. Also, the prolactin-releasing activity result in data set [2] is reported as “having prolactin-releasing activity”.

On to Prolactin Releasing Peptide [PrRP], for which the “SWD duration, recovery” value in data set [3] (10 nmol ICV, after 40 minutes) is “returned to baseline”. Besides, in data set [3] (10 nmol ICV, first 20 minutes), the SWD duration result is recorded as “reduced by half”. The “reduction of seizure activity” value in data set [3] (50 nmol ICV) came out at 75%. Moreover, in data set [3] (100 nmol ICV, at 20 minutes), the “reduction of seizure activity” value is recorded as approximately 100%. In addition, in data set [3] (all peptide concentrations (10-100 nmol ICV)), the “other mobility or behavioral changes” value is given as “No other mobility or behavioral changes were observed”. Further, the “maximum suppression of number of oscillations” value in data set [4] (10 μM, with DL-APV, bicuculline) was “approximately 40%”. Also, in data set [4] (20 μM, compared with 10 μM), the “inhibition of number of oscillations” value is given as “comparable degree of inhibition”. In addition, the calcium mobilization entry on GPR10 [5] is listed as “leads to calcium mobilization”. In addition, the “total time spent awake” value in data set [6] (1 nmol i.c.v., post-infusion epochs) is “only a trend”. In data set [6] (10 nmol i.c.v.), the “conversion to the awake state” value is on record as “nearly complete”, the “duration of awake state” value is “lasted for well over an hour” and the slow-wave sleep entry is on record as “near-complete suppression”. The “total time spent awake” value in data set [6] (10 nmol i.c.v., post-infusion epochs (POST1, POST2)) is reported as “significantly increased”. In addition, the “onset of normal waking EEG/EMG patterns” value in data set [6] (injected during sleep phase) is “within minutes”. Further, the “arachidonic acid metabolite release” value at PrRP receptor is reported as “leads to activation of arachidonic acid metabolite release”. For the same substance, in data set [7], the “effect on NMDA receptor-driven oscillation” value is reported as “no discernible effect”.

As for TPDINPAWYAGRGIRPVGRF [PrRP-20], at GPR10 [1], the Kd was approximately 1 nM. The prolactin-releasing activity entry in data set [2] is “having prolactin-releasing activity”.

Regarding IRPVGRF [PrRP(25-31)], at GPR10 [1], the Kd is 200 nM. Besides, the calcium mobilization entry at GPR10 [5] is given as “mobilizes calcium”.

The record behind these values is US6884596B2, “Screening and therapeutic methods for promoting wakefulness and sleep” (The Regents of the University of California, priority 2000, dated 2005).
